# Assay: Western blot analysis for "B" compounds
# Assay type: cell-based
# Settings: read-out: Traditional Western Degradation Potency (DC50)
# Outline: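 Target protein levels given as relative mean band intensity over GAPDH from scanned immunoblots. Lysates of treated cells in RIPA buffer, equalized by BCA, separated on 10% gels and transferred to PVDF.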
row,Compound,DC50
1,"O=C1CCC(N2C(=O)c3cc4c(cc3C2=O)CN(CC2CCC(NC3CN(c5ccc([C@@H]6c7ccc(O)cc7CC[C@@H]6c6ccccc6)cc5)C3)CC2)C4)C(=O)N1 (stereo partly drawn) [Compound B99, 2-(2,6-dioxopiperidin-3-yl)-6-((4-((1-(4-((1R,2S)-6-hydroxy-2-phenyl-1,2,3,4-tetrahydronaphthalen-1-yl)phenyl)azetidin-3-yl)amino)cyclohexyl)methyl)-6,7-dihydropyrrolo[3,4-f]isoindole-1,3(2H,5H)-dione]",> 100 nM
2,"O=C1CCC(N2C(=O)c3cc4c(cc3C2=O)CN(C2CCC(CNC3CN(c5ccc([C@@H]6c7ccc(O)cc7CC[C@@H]6c6ccccc6)cc5)C3)CC2)C4)C(=O)N1 (stereo partly drawn) [Compound B100, 2-(2,6-dioxopiperidin-3-yl)-6-(4-(((1-(4-((1R,2S)-6-hydroxy-2-phenyl-1,2,3,4-tetrahydronaphthalen-1-yl)phenyl)azetidin-3-yl)amino)methyl)cyclohexyl)-6,7-dihydropyrrolo[3,4-f]isoindole-1,3(2H,5H)-dione]",> 100 nM
3,"O=C1CCC(N2C(=O)c3cc4c(cc3C2=O)CN(C2CCC(NCC3CN(c5ccc([C@@H]6c7ccc(O)cc7CC[C@@H]6c6ccccc6)cc5)C3)CC2)C4)C(=O)N1 (stereo partly drawn) [Compound B101, 2-(2,6-dioxopiperidin-3-yl)-6-(4-(((1-(4-((1R,2S)-6-hydroxy-2-phenyl-1,2,3,4-tetrahydronaphthalen-1-yl)phenyl)azetidin-3-yl)methyl)amino)cyclohexyl)-6,7-dihydropyrrolo[3,4-f]isoindole-1,3(2H,5H)-dione]",> 100 nM
4,"O=C1CCC(N2C(=O)c3cc4c(cc3C2=O)CN([C@H]2CC[C@@H](NC3CN(c5ccc([C@@H]6c7ccc(O)cc7CC[C@@H]6c6ccccc6)cc5)C3)CC2)C4)C(=O)N1 (stereo partly drawn) [Compound B102, 2-(2,6-dioxopiperidin-3-yl)-6-((1S,4s)-4-((1-(4-((1R,2S)-6-hydroxy-2-phenyl-1,2,3,4-tetrahydronaphthalen-1-yl)phenyl)azetidin-3-yl)amino)cyclohexyl)-6,7-dihydropyrrolo[3,4-f]isoindole-1,3(2H,5H)-dione]",> 100 nM
5,"O=C1CCC(N2C(=O)c3cc4c(cc3C2=O)CN([C@H]2CC[C@H](NC3CN(c5ccc([C@@H]6c7ccc(O)cc7CC[C@@H]6c6ccccc6)cc5)C3)CC2)C4)C(=O)N1 (stereo partly drawn) [Compound B103, 2-(2,6-dioxopiperidin-3-yl)-6-((1R,4r)-4-((1-(4-((1R,2S)-6-hydroxy-2-phenyl-1,2,3,4-tctrahydronaphthalen-1-yl)phenyl)azetidin-3-yl)amino)cyclohexyl)-6,7-dihydropyrrolo[3,4-f]isoindole-1,3(2H,5H)-dione]",> 100 nM
6,"O=C1CCC(N2C(=O)c3cc4c(cc3C2=O)CN(Cc2cnc(N3CC(Oc5ccc([C@@H]6c7ccc(O)cc7CC[C@@H]6c6ccccc6)cc5)C3)cn2)C4)C(=O)N1 (stereo partly drawn) [Compound B104, 2-(2,6-dioxopiperidin-3-yl)-6-((5-(3-(4-((1R,2S)-6-hydroxy-2-phenyl-1,2,3,4-tetrahydronaphthalen-1-yl)phenoxy)azetidin-1-yl)pyrazin-2-yl)methyl)-6,7-dihydropyrrolo[3,4-f]isoindole-1,3(2H,5H)-dione]",> 100 nM
7,"O=C1CCC(N2Cc3cc4c(cc3C2=O)CN(C(=O)CN2CCC3(CC2)CCN(c2ccc([C@@H]5c6ccc(O)cc6CC[C@@H]5c5ccccc5)cc2)CC3)C4)C(=O)N1 (stereo partly drawn) [Compound B105, 3-(6-(2-(9-(4-((1R,2S)-6-hydroxy-2-phenyl-1,2,3,4-tetrahydronaphthalen-1-yl)phenyl)-3,9-diazaspiro[5.5]undecan-3-yl)acetyl)-1-oxo-3,5,6,7-tetrahydropyrrolo[3,4-f]isoindol-2(1H)-yl)piperidine-2,6-dione]",< 10 nM
8,"O=C1CCC(N2Cc3cc4c(cc3C2=O)CN(C(=O)C2CCC(N3CC(Oc5ccc([C@@H]6c7ccc(O)cc7CC[C@@H]6c6ccccc6)cc5)C3)CC2)C4)C(=O)N1 (stereo partly drawn) [Compound B106, 3-(6-((1R,4r)-4-(3-(4-((1R,2S)-6-hydroxy-2-phenyl-1,2,3,4-tetrahydronaphthalen-1-yl)phenoxy)azetidin-1-yl)cyclohexane-1-carbonyl)-1-oxo-3,5,6,7-tetrahydropyrrolo[3,4-f]isoindol-2(1H)-yl)piperidine-2,6-dione]",< 10 nM
9,"O=C1CCC(N2Cc3cc4c(cc3C2=O)CN(C(=O)C2CCC(N3CC(Oc5ccc([C@@H]6c7ccc(O)cc7CC[C@@H]6c6ccccc6)cc5)C3)CC2)C4)C(=O)N1 (stereo partly drawn) [Compound B107, 3-(6-((1S,4s)-4-(3-(4-((1R,2S)-6-hydroxy-2-phenyl-1,2,3,4-tetrahydronaphthalen-1-yl)phenoxy)azetidin-1-yl)cyclohexane-1-carbonyl)-1-oxo-3,5,6,7-tetrahydropyrrolo[3,4-f]isoindol-2(1H)-yl)piperidine-2,6-dione]",> 100 nM
10,"O=C1CCC(N2Cc3cc4c(cc3C2=O)CN(C(=O)C2CCC(NC3CN(c5ccc([C@@H]6c7ccc(O)cc7CC[C@@H]6c6ccccc6)cc5)C3)CC2)C4)C(=O)N1 (stereo partly drawn) [Compound B108, 3-(6-(4-((1-(4-((1R,2S)-6-hydroxy-2-phenyl-1,2,3,4-tetrahydronaphthalen-1-yl)phenyl)azetidin-3-yl)amino)cyclohexane-1-carbonyl)-1-oxo-3,5,6,7-tetrahydropyrrolo[3,4-f]isoindol-2(1H)-yl)piperidine-2,6-dione]",10 to 100 nM
11,"CN(C1CCN(c2ccc([C@@H]3c4ccc(O)cc4CC[C@@H]3c3ccccc3)cc2)CC1)C1CC(C(=O)N2Cc3cc4c(cc3C2)C(=O)N(C2CCC(=O)NC2=O)C4=O)C1 (stereo partly drawn) [Compound B111, 2-(2,6-dioxopiperidin-3-yl)-6-(3-((1-(4-((1R,2S)-6-hydroxy-2-phenyl-1,2,3,4-tetrahydronaphthalen-1-yl)phenyl)piperidin-4-yl)(methyl)amino)cyclobutane-1-carbonyl)-6,7-dihydropyrrolo[3,4-f]isoindole-1,3(2H,5H)-dione]",> 100 nM
12,"O=C1CCC(N2C(=O)c3cc4c(cc3C2=O)CN(C(=O)[C@H]2CC[C@H](CN3CC(Nc5ccc([C@@H]6c7ccc(O)cc7CC[C@@H]6c6ccccc6)cc5)C3)CC2)C4)C(=O)N1 (stereo partly drawn) [Compound B112, 2-(2,6-dioxopiperidin-3-yl)-6-((1R,4r)-4-((3-((4-((1R,2S)-6-hydroxy-2-phenyl-1,2,3,4-tetrahydronaphthalen-1-yl)phenyl)amino)azetidin-1-yl)methyl)cyclohexane-1-carbonyl)-6,7-dihydropyrrolo[3,4-f]isoindole-1,3(2H,5H)-dione]",< 10 nM
13,"O=C1CCC(N2C(=O)c3cc4c(cc3C2=O)CN(C(=O)C2CCC(CN3CCN(c5ccc([C@@H]6c7ccc(O)cc7CC[C@@H]6c6ccccc6)cc5)CC3)CC2)C4)C(=O)N1 (stereo partly drawn) [Compound B114, 2-(2,6-dioxopiperidin-3-yl)-6-(4-((4-(4-((1R,2S)-6-hydroxy-2-phenyl-1,2,3,4-tetrahydronaphthalen-1-yl)phenyl)piperazin-1-yl)methyl)cyclohexane-1-carbonyl)-6,7-dihydropyrrolo[3,4-f]isoindole-1,3(2H,5H)-dione]",> 100 nM
14,"O=C1CCC(N2C(=O)c3cc4c(cc3C2=O)CN(Cc2ccc(N3CC(Nc5ccc([C@@H]6c7ccc(O)cc7CC[C@@H]6c6ccccc6)cc5)C3)nc2)C4)C(=O)N1 (stereo partly drawn) [Compound B117, 2-(2,6-dioxopiperidin-3-yl)-6-((6-(3-((4-((1R,2S)-6-hydroxy-2-phenyl-1,2,3,4-tetrahydronaphthalen-1-yl)phenyl)amino)azetidin-1-yl)pyridin-3-yl)methyl)-6,7-dihydropyrrolo[3,4-f]isoindole-1,3(2H,5H)-dione]",> 100 nM
15,"O=C1CCC(N2C(=O)c3cc4c(cc3C2=O)CN(C[C@H]2CC[C@H](N3CC(Nc5ccc([C@@H]6c7ccc(O)cc7CC[C@@H]6c6ccccc6)cc5)C3)CC2)C4)C(=O)N1 (stereo partly drawn) [Compound B118, 2-(2,6-dioxopiperidin-3-yl)-6-(((1R,4r)-4-(3-((4-((1R,2S)-6-hydroxy-2-phenyl-1,2,3,4-tetrahydronaphthalen-1-yl)phenyl)amino)azetidin-1-yl)cyclohexyl)methyl)-6,7-dihydropyrrolo[3,4-f]isoindole-1,3(2H,5H)-dione]",> 100 nM
16,"O=C1CCC(N2C(=O)c3cc4c(cc3C2=O)CN(C[C@H]2CC[C@@H](N3CC(Nc5ccc([C@@H]6c7ccc(O)cc7CC[C@@H]6c6ccccc6)cc5)C3)CC2)C4)C(=O)N1 (stereo partly drawn) [Compound B119, 2-(2,6-dioxopiperidin-3-yl)-6-(((1S,4s)-4-(3-((4-((1R,2S)-6-hydroxy-2-phenyl-1,2,3,4-tetrahydronaphthalen-1-yl)phenyl)amino)azetidin-1-yl)cyclohexyl)methyl)-6,7-dihydropyrrolo[3,4-f]isoindole-1,3(2H,5H)-dione]",> 100 nM
17,"O=C1CCC(N2C(=O)c3cc4c(cc3C2=O)CN(CC(=O)N2CCC(C(=O)N3CC(Oc5ccc([C@@H]6c7ccc(O)cc7CC[C@@H]6c6ccccc6)cc5)C3)CC2)C4)C(=O)N1 (stereo partly drawn) [Compound B120, 2-(2,6-dioxopiperidin-3-yl)-6-(2-(4-(3-(4-((1R,2S)-6-hydroxy-2-phenyl-1,2,3,4-tetrahydronaphthalen-1-yl)phenoxy)azetidine-1-carbonyl)piperidin-1-yl)-2-oxoethyl)-6,7-dihydropyrrolo[3,4-f]isoindole-1,3(2H,5H)-dione]",> 100 nM
18,"O=C1CCC(N2C(=O)c3cc4c(cc3C2=O)CN(CC(=O)N2CCC(N3CC(Oc5ccc([C@@H]6c7ccc(O)cc7CC[C@@H]6c6ccccc6)cc5)C3)CC2)C4)C(=O)N1 (stereo partly drawn) [Compound B121, 2-(2,6-dioxopiperidin-3-yl)-6-(2-(4-(3-(4-((1R,2S)-6-hydroxy-2-phenyl-1,2,3,4-tetrahydronaphthalen-1-yl)phenoxy)azetidin-1-yl)piperidin-1-yl)-2-oxoethyl)-6,7-dihydropyrrolo[3,4-f]isoindole-1,3(2H,5H)-dione]",10 to 100 nM
19,"O=C1CCC(N2C(=O)c3cc4c(cc3C2=O)CN([C@H]2CC[C@H](C(=O)N3CC(Oc5ccc([C@@H]6c7ccc(O)cc7CC[C@@H]6c6ccccc6)cc5)C3)CC2)C4)C(=O)N1 (stereo partly drawn) [Compound B122, 2-(2,6-dioxopiperidin-3-yl)-6-((1S,4r)-4-(3-(4-((1R,2S)-6-hydroxy-2-phenyl-1,2,3,4-tctrahydronaphthalcn-1-yl)phenoxy)azetidine-1-carbonyl)cyclohexyl)-6,7-dihydropyrrolo[3,4-f]isoindole-1,3(2H,5H)-dione]",10 to 100 nM
